By melting point is commonly meant the temperature, or range, at which the solid turns liquid.

One series addresses T1, histamine H3 receptor (Rattus norvegicus, UniProt Q9QYN8).
T1 construct: from tissue; host or cells: rat striatum (Sprague-Dawley, male, 6 weeks), membrane homogenate
Nature of the series: Histamine H3 receptor binding assay ([3H]-Nα-methylhistamine binding to rat striatum homogenate). The note with it: 1 μmol/L test compound; [3H]-Nα-methylhistamine 1 nmol/L; striata of Sprague-Dawley male rats, 25° C., 1 hour; read-out: Inhibition ratio of [3H]-Nα-methylhistamine binding. Summed up: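 Rat striatum membranes (20 μg protein) incubated with [3H]-Nα-methylhistamine 1 nmol/L in 50 mmol/L Tris/HCl pH 7.4, 5 mmol/L EDTA, 1 hour at 25° C; bound ligand by filtration and scintillation counting. Nonspecific binding defined with 10 μmol/L thioperamide; % inhibition reported at 1 μmol/L compound.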

The structures appear in SMILES notation.

T1 sequence (Q9QYN8 whole entry): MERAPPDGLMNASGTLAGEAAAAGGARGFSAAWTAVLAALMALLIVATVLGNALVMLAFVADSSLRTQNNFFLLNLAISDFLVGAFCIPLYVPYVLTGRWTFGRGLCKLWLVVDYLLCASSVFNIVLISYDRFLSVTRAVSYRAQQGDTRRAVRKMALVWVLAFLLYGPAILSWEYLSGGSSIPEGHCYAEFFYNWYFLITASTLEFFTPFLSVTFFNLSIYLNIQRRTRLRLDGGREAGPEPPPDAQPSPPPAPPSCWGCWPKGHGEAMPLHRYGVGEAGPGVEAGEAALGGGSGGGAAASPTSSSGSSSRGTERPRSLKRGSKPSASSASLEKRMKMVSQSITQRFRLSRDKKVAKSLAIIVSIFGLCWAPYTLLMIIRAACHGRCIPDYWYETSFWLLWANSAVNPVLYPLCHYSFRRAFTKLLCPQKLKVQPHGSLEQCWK

`CCN(CCCN1CCCCC1)C(=C(C#N)C#N)N1CCC(N2CCCCC2)CC1` [Compound 162, {[N-ethyl-N-(3-piperidinopropyl)amino](4-piperidinopiperidino)methylene}malononitrile] yielded a melting point of 94 to 96 °C. Also, on histamine H3 receptor, the inhibition at 1 µM is at least 80%. As to `C[C@H]1CCCN1CCCN1CCN(CCN2CCCCC2)C1=C(C#N)C#N` [Compound 195, {1-[3-((S)-2-methylpyrrolidin-1-yl)propyl]-3-(2-piperidinoethyl)imidazolidin-2-ylidene}malononitrile], the melting point was 70 to 71 °C. In addition, the inhibition at 1 µM at histamine H3 receptor is at least 80%. As for `N#CC(C#N)=C(NCCCN1CCCCC1)N1CCN(C2CCCCC2)CC1` [Compound 183, [(4-Cyclohexylpiperazin-1-yl)(3-piperidinopropylamino)methylene]malononitrile], the melting point fell in the range of 136 to 137 °C. Compound `N#CC(C#N)=C1N(CCCN2CCCCC2)CCN1C1CCN(CC(F)(F)F)CC1` [Compound 225, {1-(3-Piperidinopropyl)-3-[1-(2,2,2-trifluoroethyl)piperidin-4-yl]imidazolidin-2-ylidene}malononitrile] came in with a melting point of 103 to 105 °C. On to `N#CC(C#N)=C1N(CCCN2CCC[C@@H]2CO)CCN1CCCN1CCC[C@@H]1CO` [Compound 118, {1,3-Bis[3-((R)-2-hydroxymethylpyrrolidin-1-yl)propyl]imidazolidin-2-ylidene}malononitrile], for which the melting point was in the range of 79 to 80 °C. For the same compound, the inhibition at 1 µM on histamine H3 receptor was at least 80%. In turn, `CN1CCCC1CCN1CCN(CCC2CCCN2C)C1=C(C#N)C#N` (stereo not drawn) [Compound 4, {1,3-Bis[2-(1-methylpyrrolidin-2-yl)ethyl]imidazolidin-2-ylidene}malononitrile] came in with a melting point of 121 to 123 °C. In addition, at histamine H3 receptor, the inhibition at 1 µM was at least 80%. Compound `CC1CCCN1CCCN1CCN(CCCN2CCC(F)(F)C2)C1=C(C#N)C#N` (stereo not drawn) [Compound 120, {1-[3-(3,3-Difluoropyrrolidin-1-yl)propyl]-3-[3-(2-methylpyrrolidin-1-yl)propyl]imidazolidin-2-ylidene}malononitrile] yielded a melting point of 99 to 102 °C. In addition, on histamine H3 receptor, the inhibition at 1 µM was at least 80%.

Compound `C[C@@H]1CCCN1CCN1CCN(CCCN2CCC[C@@H]2C)C1=C(C#N)C#N` [Compound 196, {3-[2-((R)-2-methylpyrrolidin-1-yl)ethyl]-1-[3-((S)-2-methylpyrrolidin-1-yl)propyl]imidazolidin-2-ylidene}malononitrile] displayed a melting point of 94 to 95 °C. In addition, on histamine H3 receptor, the inhibition at 1 µM is at least 80%.

`CC1CCCN1CCCN1CCN(CCN2CCCC2)C1=C(C#N)C#N` (stereo not drawn) [Compound 61, {1-[3-(2-Methylpyrrolidin-1-yl)propyl]-3-[2-(pyrrolidin-1-yl)ethyl]imidazolidin-2-ylidene}malononitrile] showed a melting point of 95 to 96 °C. Further, the inhibition at 1 µM at histamine H3 receptor was at least 80%.

Turning to `C#CC(C)(C)N1CCC(N2CCN(CCCN3CCCCC3)C2=C(C#N)C#N)CC1` [Compound 228, {1-[1-(1,1-Dimethyl-2-propynyl)piperidin-4-yl]-3-(3-piperidinopropyl)imidazolidin-2-ylidene}malononitrile], the melting point lay in the range of 112 to 115 °C. For the same compound, the inhibition at 1 µM at histamine H3 receptor is at least 80%. For the compound `N#CC(C#N)=C(NCCCN1CCCCC1)N1CCC(N2CCCC2)CC1` [Compound 158, {(3-Piperidinopropylamino)[4-(pyrrolidin-1-yl)piperidino]methylene}malononitrile], the melting point was in the range of 114 to 116 °C. In addition, at histamine H3 receptor, the inhibition at 1 µM is at least 80%. As for `N#CCS(=O)(=O)C=C1N(CCCN2CCCCC2)CCN1CCCN1CCCCC1` [Compound 136, [1,3-Bis(3-piperidinopropyl)imidazolidin-2-ylidene]methanesulfonylacetonitrile], the melting point fell in the range of 105 to 107 °C. Regarding `N#CC(C#N)=C(NC1CCN(Cc2ccccc2)CC1)NC1CCN(Cc2ccccc2)CC1` [Compound 239, [Bis(1-benzylpiperidin-4-ylamino)methylene]malononitrile], the melting point lay in the range of 147 to 148 °C.

With `N#CC(C#N)=C(NCCCN1CCCCC1)N1CCC(N2CCOCC2)CC1` [Compound 164, [(3-Piperidinopropylamino) (4-morpholinopiperidino)methylene]malononitrile], the melting point fell in the range of 122 to 124 °C. Regarding `C[C@H]1CCCN1CCCN1CCN(CCCN2CCC[C@@H]2C)C1=CS(=O)(=O)CC#N` [Compound 138, {1,3-Bis[3-((S)-2-methylpyrrolidin-1-yl)propyl]imidazolidin-2-ylidene}methanesulfonylacetonitrile], the melting point fell in the range of 91 to 93 °C. For the compound `N#CC(C#N)=C1N(CCN2CCCCC2)c2ccccc2N1CCN1CCCCC1` [Compound 192, [1,3-Bis-(2-piperidinoethyl)benzimidazolidin-2-ylidene]malononitrile], the melting point lay within 127 to 128 °C. As to `CC1CCN(CCCN2CCN(CCCN3CCCCC3)C2=C(C#N)C#N)CC1` [Compound 100, {1-[3-(4-Methylpiperidino)propyl]-3-(3-piperidinopropyl)imidazolidin-2-ylidene}malononitrile], the inhibition at 1 µM on histamine H3 receptor was at least 80%. Consider `N#CC(C#N)=C(NCCCN1CCCCC1)NCCCN1CCCCC1` [Compound 2, [Bis(3-piperidinopropylamino)methylene]malononitrile], for which the inhibition at 1 µM at histamine H3 receptor is at least 80%. For `C=CCN1CCC(N2CCN(CCCN3CCCCC3)C2=C(C#N)C#N)CC1` [Compound 227, [1-(1-Allylpiperidin-4-yl)-3-(3-piperidinopropyl)imidazolidin-2-ylidene]malononitrile], at histamine H3 receptor, the inhibition at 1 µM was at least 80%. Consider `CC1CCN(CCCN2CCN(CCCN3CC(C)CC(C)C3)C2=C(C#N)C#N)CC1` (stereo not drawn) [Compound 106, {1-[3-(3,5-Dimethylpiperidino)propyl]-3-[3-(4-methylpiperidino)propyl]imidazolidin-2-ylidene}malononitrile], for which the inhibition at 1 µM at histamine H3 receptor was at least 80%.

`CC1CCCN1CCCN1CCN(CCN2C[C@H](C)C[C@H](C)C2)C1=C(C#N)C#N` (relative stereo) [Compound 20, {1-[2-(Cis-3,5-dimethylpiperidino)ethyl]-3-[3-(2-methylpyrrolidin-1-yl)propyl]imidazolidin-2-ylidene}malononitrile]: at histamine H3 receptor, the inhibition at 1 µM was at least 80%. Turning to `N#CC(C#N)=C1N(CCCN2CCCCC2)CCN1C1CCN(CC2CC2)CC1` [Compound 229, [1-(1-Cyclopropylmethylpiperidin-4-yl)-3-(3-piperidinopropyl)imidazolidin-2-ylidene]malononitrile], the inhibition at 1 µM on histamine H3 receptor is at least 80%. Regarding `CC1CCCN1CC1CCN(C(NCCN2CCCCC2)=C(C#N)C#N)CC1` (stereo not drawn) [Compound 148, {[4-(2-Methylpyrrolidin-1-ylmethyl)piperidino](2-piperidinoethylamino)methylene}malononitrile], the inhibition at 1 µM at histamine H3 receptor is at least 80%. Regarding `CC1CCCN1CCCNC(=C(C#N)C#N)N1CCC(CN2CCCC2C)CC1` (stereo not drawn) [Compound 174, {[4-(2-Methylpyrrolidin-1-ylmethyl)piperidino][3-(2-methylpyrrolidin-1-yl)propylamino]methylene}malononitrile], the inhibition at 1 µM at histamine H3 receptor is at least 80%.

Regarding `CC1CC(C)CN(CCCN2CCN(CCCN3CCCCC3C)C2=C(C#N)C#N)C1` (stereo not drawn) [Compound 104, {1-[3-(3,5-Dimethylpiperidino)propyl]-3-[3-(2-methylpiperidino)propyl]imidazolidin-2-ylidene}malononitrile], the inhibition at 1 µM at histamine H3 receptor was at least 80%. In the case of `CC1CCCN1CCCN1CCN(C2CCN(Cc3ccccc3)CC2)C1=C(C#N)C#N` (stereo not drawn) [Compound 127, {1-(1-Benzylpiperidin-4-yl)-3-[3-(2-methylpyrrolidin-1-yl)propyl]imidazolidin-2-ylidene}malononitrile], the inhibition at 1 µM at histamine H3 receptor was at least 80%. On to `CC1CCCN1CCCN1CCN(CCN2CCCCC2)C1=C(C#N)C#N` (stereo not drawn) [Compound 33, {1-[3-(2-Methylpyrrolidin-1-yl)propyl]-3-(2-piperidinoethyl)imidazolidin-2-ylidene}malononitrile], for which the inhibition at 1 µM on histamine H3 receptor is at least 80%. Turning to `CC1CCCCN1CCCN1CCN(CCCN2CCCCC2)C1=C(C#N)C#N` (stereo not drawn) [Compound 98, {1-[3-(2-Methylpiperidino)propyl]-3-(3-piperidinopropyl)imidazolidin-2-ylidene}malononitrile], the inhibition at 1 µM at histamine H3 receptor is at least 80%.

For `N#CC(C#N)=C1N(CCCCN2CCCCC2)CCN1CCCCN1CCCCC1` [Compound 9, [1,3-Bis(4-piperidinobutyl)imidazolidin-2-ylidene]malononitrile], on histamine H3 receptor, the inhibition at 1 µM is at least 80%. As to `N#CC(C#N)=C1N(CCCN2CC=CCC2)CCN1CCCN1CCCCCC1` [Compound 68, {1-[3-(Azepan-1-yl)propyl]-3-[3-(1,2,3,6-tetrahydropyridin-1-yl)propyl]imidazolidin-2-ylidene}malononitrile], the inhibition at 1 µM on histamine H3 receptor was at least 80%. As to `N#CC(C#N)=C1N(CCN2CCCCC2)CCN1CCN1CCCCC1` [Compound 5, [1,3-Bis(2-piperidinoethyl)imidazolidin-2-ylidene]malononitrile], the inhibition at 1 µM on histamine H3 receptor was at least 80%. Still for that read-out and setting: for `CC1CCCN1CCCN1CCN(CCCN2CCCC2C)C1=O` (stereo not drawn) [Compound 141, 1,3-Bis[3-(2-methylpyrrolidin-1-yl)propyl]imidazolidine-2-one] the value was at least 80%. In turn, `CN(CCN1CCCCC1)C(=C(C#N)C#N)N1CCC(N(C)c2ccccc2)CC1` [Compound 146, {[4-(N-methyl-N-phenylamino)piperidino][N-methyl-N-(2-piperidinoethyl)amino]methylene}malononitrile] yielded a melting point of 156 to 158 °C.
